Data set [1] in a line: Selectivity index, ratio of IC50 for ovine COX-1 to IC50 for recombinant human COX-2.
Data set [2] deals with T1, Prostaglandin G/H synthase 1 (Ovis aries, UniProt P05979).
T1 sequence (P05979 whole entry): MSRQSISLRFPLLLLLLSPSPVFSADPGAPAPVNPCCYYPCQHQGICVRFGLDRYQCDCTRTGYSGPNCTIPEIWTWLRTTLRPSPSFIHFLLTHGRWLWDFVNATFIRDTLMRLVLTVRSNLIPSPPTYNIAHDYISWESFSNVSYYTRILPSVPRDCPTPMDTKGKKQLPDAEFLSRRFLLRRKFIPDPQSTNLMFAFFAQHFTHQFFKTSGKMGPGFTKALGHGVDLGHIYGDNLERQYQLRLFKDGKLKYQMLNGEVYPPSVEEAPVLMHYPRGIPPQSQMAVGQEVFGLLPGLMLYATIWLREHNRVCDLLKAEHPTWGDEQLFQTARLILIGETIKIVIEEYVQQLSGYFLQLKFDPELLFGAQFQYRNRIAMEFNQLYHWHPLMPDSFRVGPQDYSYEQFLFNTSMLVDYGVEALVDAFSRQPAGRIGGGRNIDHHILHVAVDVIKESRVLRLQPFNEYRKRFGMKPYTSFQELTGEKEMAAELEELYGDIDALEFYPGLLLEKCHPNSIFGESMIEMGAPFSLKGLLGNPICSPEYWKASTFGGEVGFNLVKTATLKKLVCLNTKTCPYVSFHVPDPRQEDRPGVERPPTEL
Put plainly: Inhibition of ovine COX-1 assessed as reduction of prostaglandin-G2 to prostaglandin-H2 and oxidation of 10-acetyl-3,7-dihydroxyphenoxazine to resorufin after 5 mins by fluorescence based assay.

Data set [3] concerns the target T2, Prostaglandin G/H synthase 2 (Homo sapiens, UniProt P35354).
T2 sequence (P35354 whole entry): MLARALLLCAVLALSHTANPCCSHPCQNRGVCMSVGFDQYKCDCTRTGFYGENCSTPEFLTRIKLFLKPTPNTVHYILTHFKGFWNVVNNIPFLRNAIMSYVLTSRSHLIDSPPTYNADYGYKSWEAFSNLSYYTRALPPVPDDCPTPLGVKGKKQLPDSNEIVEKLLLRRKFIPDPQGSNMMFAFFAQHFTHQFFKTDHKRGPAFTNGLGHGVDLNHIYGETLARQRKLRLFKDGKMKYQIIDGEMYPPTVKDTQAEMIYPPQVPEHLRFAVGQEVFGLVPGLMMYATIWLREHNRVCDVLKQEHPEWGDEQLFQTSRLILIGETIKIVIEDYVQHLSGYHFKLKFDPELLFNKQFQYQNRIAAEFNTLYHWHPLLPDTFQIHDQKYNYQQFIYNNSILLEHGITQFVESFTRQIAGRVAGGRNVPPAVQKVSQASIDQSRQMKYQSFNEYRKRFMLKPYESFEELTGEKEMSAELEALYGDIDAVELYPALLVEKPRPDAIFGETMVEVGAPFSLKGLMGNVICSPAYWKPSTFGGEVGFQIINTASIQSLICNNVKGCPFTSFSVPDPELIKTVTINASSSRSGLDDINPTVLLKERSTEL
Put plainly: Inhibition of recombinant human COX-2 assessed as reduction of prostaglandin-G2 to prostaglandin-H2 and oxidation of 10-acetyl-3,7-dihydroxyphenoxazine to resorufin after 5 mins by fluorescence based assay.

Data set [4] can be described thus: Chemical stability of the compound in aqueous solution after 9 days by HPLC analysis. The data set is classed as physicochemical. The conditions noted are these: buffer, 216 h.
The nature of data set [5]: Nitric oxide release in phosphate-buffered-saline containing K3[Fe(CN)6] using 2,3-diaminonaphthlene at 50 uM after 90 mins by fluorescence assay.
The subject of data set [6] is Plasma. In words: Nitric oxide release in human plasma using 2,3-diaminonaphthlene at 50 uM after 90 mins by fluorescence assay. In kind it is ADME, cell-free. The conditions noted are these: 1.5 h.
The nature of data set [7]: Nitric oxide release in phosphate-buffered-saline containing L-cysteine using 2,3-diaminonaphthlene at 50 uM after 90 mins by fluorescence assay.
Data set [8] can be described thus: Nitric oxide release in phosphate-buffered-saline containing human plasma at 50 uM after 90 mins by fluorescence assay in absence of HgCl2.
Data set [9] can be described thus: Nitric oxide release in phosphate-buffered-saline containing human plasma at 50 uM after 90 mins by fluorescence assay in presence of HgCl2.
The nature of data set [10]: Nitric oxide release in phosphate-buffered-saline using 2,3-diaminonaphthlene at 50 uM after 90 mins by fluorescence assay.
Data set [11] has as its system Serum. Put plainly: Nitric oxide release in rat serum using 2,3-diaminonaphthlene at 50 uM after 90 mins by Griess assay. The data set is classed as ADME, cell-free. The conditions noted are these: 1.5 h. (In general: Griess reagent forms a coloured azo dye with nitrite.)
The nature of data set [12]: Nitric oxide release in phosphate-buffered-saline containing K3[Fe(CN)6] using 2,3-diaminonaphthlene at 50 uM after 90 mins by Griess assay.
The nature of data set [13]: Nitric oxide release in phosphate-buffered-saline using 2,3-diaminonaphthlene at 50 uM after 90 mins by Griess assay.

For `Cc1ccc(-c2cc(CO)nn2-c2ccc(S(N)(=O)=O)cc2)cc1`, in data set [1], the Ratio IC50 was more than 78.7. Also, the IC50 in data set [2] was more than 100 µM; in [3], 1.27 µM. Besides, in data set [4], the Stability entry is listed as “Stable”.

For `Cc1ccc(-c2cc(CCl)nn2-c2ccc(S(N)(=O)=O)cc2)cc1`, in [1], the Ratio IC50 was more than 103. In addition, the IC50 is more than 100 µM in data set [2] and 0.97 µM in data set [3].

Turning to `Cc1ccc(-c2c(Cl)c(CCl)nn2-c2ccc(S(N)(=O)=O)cc2)cc1`, the Ratio IC50 in data set [1] was more than 454. Also, the IC50 is more than 100 µM in data set [2] and 0.22 µM in [3].

Turning to `Cc1ccc(-c2cc(CO[N+](=O)[O-])nn2-c2ccc(S(N)(=O)=O)cc2)cc1`, the Activity in data set [5] was determined as 0.6%; in data set [6] it was 0.3%; in [7], 1.2%; in data set [8], 0%; in [9] it was 3.5%. Moreover, in [1], the Ratio IC50 was more than 112. Moreover, the concentration for half-maximal inhibition (IC50) in data set [2] is more than 100 µM; in [3], 0.89 µM. Besides, the Stability entry in data set [4] was “Stable”.

With `CC(=O)Oc1ccccc1C(=O)OCCCCO[N+](=O)[O-]`, the Activity in data set [5] stood at 0.2%; in [6] it was 1.4%; in data set [7] it was 0.8%. Besides, the Ratio IC50 in data set [1] stood at 1.4. Besides, the IC50 in [2] came to 65 µM; in data set [3], 45 µM.

`O=S(=O)(NO)c1ccccc1`: the Activity stood at 48.3% in data set [5]; 0.3% in [6]; 33.5% in data set [10]; 3.2% in data set [11]; 58.4% in data set [12]; 0.3% in data set [7]. Moreover, the Activity in data set [13] is 59.7%.

In the case of `Cc1ccc(-c2c(Cl)c(CO[N+](=O)[O-])nn2-c2ccc(S(N)(=O)=O)cc2)cc1`, the Activity turned out to be 0.5% in [6], 0.8% in [7], 0% in data set [8] and 3.5% in data set [9]. In addition, the Ratio IC50 in data set [1] was determined as 218. Besides, the IC50 came to 61 µM in [2] and 0.28 µM in data set [3].

A word on the IC50: it is the concentration needed to halve the response being measured.

These data come from ChEMBL document CHEMBL3600313, “Novel (pyrazolyl)benzenesulfonamides with a nitric oxide-releasing moiety as selective cyclooxygenase-2 inhibitors” (Bioorg Med Chem Lett, 2015).
